The values that follow come from ChEMBL document CHEMBL6103595, “Synthesis and evaluation of piceatannol derivatives as novel arginase inhibitors with radical scavenging activity and their potential for collagen reduction in dermal fibroblasts” (Eur J Med Chem, 2025).

The source made the active and inactive calls. No cut-off for these calls is given here.

The term IC50 denotes the concentration at which inhibition is half-maximal. For orientation: EC50 means the midpoint of the concentration-response curve.

Data set [1] addresses T1, Arginase-1 (Homo sapiens, UniProt P05089).
T1 sequence (P05089 whole entry): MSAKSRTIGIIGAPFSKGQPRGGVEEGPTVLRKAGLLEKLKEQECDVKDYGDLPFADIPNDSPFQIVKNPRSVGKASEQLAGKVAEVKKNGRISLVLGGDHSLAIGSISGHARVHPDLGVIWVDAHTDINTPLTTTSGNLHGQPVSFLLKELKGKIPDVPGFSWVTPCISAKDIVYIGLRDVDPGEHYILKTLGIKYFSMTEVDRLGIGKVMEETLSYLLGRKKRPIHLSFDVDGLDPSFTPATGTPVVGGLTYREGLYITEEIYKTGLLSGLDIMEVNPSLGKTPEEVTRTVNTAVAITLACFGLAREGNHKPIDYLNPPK
The data set is described as follows: Inhibition of recombinant human Arg-1 using L-ARG as substrate incubated for 60 mins by OPA colorimetric analysis.

A short description of data set [2]: Antioxidant activity assessed as DPPH radical scavenging activity incubated for 30 mins under dark condition by absorbance based analysis. In kind it is functional. Background: DPPH is a stable violet radical that fades when it is reduced.
Data set [3] is described as follows: Antioxidant activity assessed as ABTS radical scavenging activity incubated for 12 hrs under dark condition by absorbance based plate reader analysis. In kind it is functional.
Data set [4] has as its target T2, Arginase-1 (Bos taurus, UniProt Q2KJ64).
T2 sequence (Q2KJ64 whole entry): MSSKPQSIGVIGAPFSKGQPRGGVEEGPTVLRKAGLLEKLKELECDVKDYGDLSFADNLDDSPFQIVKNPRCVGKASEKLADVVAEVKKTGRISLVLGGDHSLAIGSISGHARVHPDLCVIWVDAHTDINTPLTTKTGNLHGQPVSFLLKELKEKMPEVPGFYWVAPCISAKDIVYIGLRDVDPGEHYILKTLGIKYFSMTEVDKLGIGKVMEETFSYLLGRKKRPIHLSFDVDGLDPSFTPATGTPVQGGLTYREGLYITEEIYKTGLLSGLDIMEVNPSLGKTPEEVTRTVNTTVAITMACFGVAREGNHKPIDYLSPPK
As to the kind of experiment: Inhibition of bovine Arg-1 using L-ARG as substrate incubated for 60 mins by OPA colorimetric analysis.

Data set [5] in a line: Cytotoxicity against human Red-COLA1 cells assessed as cell viability at 10 uM incubated for 24 hrs by MTT assay relative to control. In kind it is functional. As to conditions: read-out: Activity.
Data set [6] relates to Red-COLA1. The data set is described as follows: Antifibrotic activity against TGF-beta induced human Red-COLA1 cells assessed as reduction in procollagen type-1 synthesis at 10 uM incubated for 48 hrs by ELISA (reference value: 130.6 ng/ml). In kind it is functional, cell-based.
Data set [7] in a line: Antifibrotic activity against TGF-beta induced human Red-COLA1 cells assessed as reduction in collagen deposition rate at 10 uM measured after 7 days by sirius red staining based microplate reader analysis (reference value: 130.6%). In kind it is functional. On the set-up: scale not given: the % may be the effect or the level left. As to conditions: time 7 day.
A short description of data set [8]: Stability of the compound in aqueous solution at 20 mM measured after 4 hrs. Type of data set: physicochemical. To be noted: buffer, 20000 µM.
The nature of data set [9]: Cytotoxicity against human Red-COLA1 cells assessed as cell viability at 5 uM incubated for 24 hrs by MTT assay relative to control. In kind it is functional. To be noted: read-out: Activity. (In general: Tetrazolium assays rely on reduction of a dye to a coloured formazan, in cell work by metabolically active cells.)
Data set [10] has as its system Red-COLA1. The data set is described as follows: (§1) Antifibrotic activity against TGF-beta induced human Red-COLA1 cells assessed as reduction in procollagen type-1 synthesis at 5 uM incubated for 48 hrs by ELISA (reference value: 130.6 ng/ml). In kind it is functional.
Data set [11] is described as follows: Antifibrotic activity against TGF-beta induced human Red-COLA1 cells assessed as reduction in collagen deposition rate at 5 uM measured after 7 days by sirius red staining based microplate reader analysis (reference value: 130.6%). In kind it is functional. On the set-up: scale not given: the % may be the effect or the level left. As to conditions: time 7 day.

The nature of data set [12]: Stability of the compound in aqueous solution at 20 mM measured at <= 2 hrs relative to control. As to conditions: read-out: Stability. In kind it is physicochemical.
The target of data set [13] is T3, Arginase-1 (Bos taurus) (UniProt Q2KJ64).
T3 sequence (whole entry): T2 sequence (Q2KJ64 whole entry)
The data set is described as follows: Potency index, ratio of piceatannol IC50 to test compound IC50 for inhibition of bovine Arg-1 using L-ARG as substrate.

Data set [14] can be described thus: as §1. In kind it is functional.

Turning to `Oc1cccc(C(=S)Nc2ccc(O)c(O)c2)c1`, the figures for the IC50 in [1] and in data set [4] were 28 µM and 16 µM, respectively. Further, the EC50 in data set [2] was found to be 10 µM; in data set [3], 12 µM.
Regarding `O=S(=O)(Nc1ccc(O)c(O)c1)c1cccc(O)c1`, half-maximal inhibition in data set [4] (IC50) was put at 325 µM.
For the compound `Oc1cccc(NC(=S)c2ccc(O)c(O)c2)c1`, the midpoint of inhibition in data set [4], the IC50, lay at 41 µM.
With `O=C(Nc1ccc(O)c(O)c1)c1cc(O)c(O)c(O)c1`, in [4], the half-maximal inhibitory concentration (IC50) worked out at 65 µM.
`Oc1ccc(NC(=S)c2ccccc2)cc1O` had an IC50 in [4] of 63 µM.
Consider `O=C(c1ccc(O)c(O)c1)N(CCCO)c1ccc(O)c(O)c1`, for which, in [4], the half-inhibitory concentration (IC50) was 148 µM.
Take `N[C@@H](CSCCB(O)O)C(=O)O`: in data set [5], the viability at 10 µM was 96.7%. Moreover, the IC50 in [1] amounted to 9 µM; in data set [4] it was 17 µM. Besides, the outcome in data set [6] was inactive. Besides, the Activity in [7] is reported as 130.6%.
In the case of `Cc1c(C)c2c(c(C)c1O)CCC(C)(C(=O)O)O2` (stereo not given) [TROLOX], the results for the EC50 in data set [2] and in [3] were 29 µM and 24 µM, respectively.
`O=C(Nc1ccccc1O)c1ccc(O)c(O)c1` registered a half-inhibitory concentration (IC50) in data set [4] of 3100 µM.
On to `Oc1ccc(/N=C(/Nc2ccc(O)c(O)c2)c2ccc(O)c(O)c2)cc1O`, for which the IC50 in data set [4] was found to be 171 µM.
On to `Oc1ccc(NC(=S)c2ccc(O)c(O)c2)cc1`, for which the 50% inhibitory concentration (IC50) in data set [4] was 95 µM.
As for `O/N=C(/Nc1ccc(O)c(O)c1)c1ccc(O)c(O)c1`, the EC50 in [2] stood at 16 µM; in data set [3], 12 µM. Besides, it took 115 µM to reach half-maximal inhibition in data set [4] (IC50).
Turning to `Oc1ccc(/C=C/c2ccccc2)cc1O` [(E)-3,4-STILBENDIOL], the IC50 in data set [4] is 97 µM.
Regarding `O=S(=O)(Nc1ccc(O)c(O)c1)c1cc(O)ccc1O`, in data set [4], the concentration for half-maximal inhibition (IC50) is above 500 µM.
Same read-out and setting: under `O=C(Nc1ccc(O)c(O)c1)c1cccc(O)c1O` stands 69 µM.
`Oc1ccc(/C=C/c2ccc(O)c(O)c2)cc1O` yielded an IC50 in data set [4] of 69 µM.
Consider `Nc1ccc(NC(=O)c2ccc(O)c(O)c2)cc1`, for which, in data set [4], the concentration for half-maximal inhibition (IC50) is 170 µM.
`O=C(Nc1ccccc1)c1ccc(O)c(O)c1` yielded an IC50 in [4] of 1000 µM.
Same read-out and setting: with `Oc1ccc(O)c(/C=C/c2ccc(O)c(O)c2)c1` the figure was 59 µM; with `O=C(c1ccc(O)c(O)c1)N(CCCCCO)c1ccc(O)c(O)c1`, 137 µM; with `O=C(c1ccc(O)c(O)c1)N(CCO)c1ccc(O)c(O)c1`, 228 µM.
On the same count and under the same terms, with `O=C(Nc1cccc(O)c1)c1ccc(O)c(O)c1` the figure was 770 µM.
`Oc1cc(O)cc(C(=S)Nc2ccc(O)c(O)c2)c1`: the figures for the IC50 in data set [1] and in data set [4] were 32 µM and 20 µM, respectively. Besides, the EC50 in [2] was 17 µM; in [3], 12 µM. Besides, the Stability result in data set [8] is “Stable”. Moreover, the viability at 5 µM in data set [9] was found to be 100%. Also, the result in data set [10] was inactive. The Activity in [11] was 133.1%.
As to `CN(C(=O)c1ccc(O)c(O)c1)c1ccc(O)c(O)c1`, in [4], the half-maximal inhibitory concentration (IC50) came out at 222 µM.
Take `Nc1cccc(C(=S)Nc2ccc(O)c(O)c2)c1`: in data set [4], the IC50 worked out at 161 µM.
`Oc1cc(O)cc(NC(=S)c2ccc(O)c(O)c2)c1` returned a 50% inhibitory concentration (IC50) in [4] of 66 µM.
Regarding `Oc1cc(O)cc(/C=C/c2ccc(O)c(O)c2)c1` [PICEATANNOL], the viability at 10 µM in data set [5] came to 100%. Besides, the IC50 in [1] came out at 28 µM; in data set [4] it was 20 µM. In addition, the half-maximal effective concentration (EC50) came to 37 µM in [2] and 13 µM in data set [3]. In data set [6], the result was inactive. The Activity in [7] was 113.5%. Further, the remaining at 2 h, 20000 µM in [12] amounted to 70%.
In turn, `Nc1cccc(NC(=S)c2ccc(O)c(O)c2)c1` returned a half-maximal inhibitory concentration (IC50) in data set [4] of 116 µM.
The compound `O=C(Nc1ccc(O)cc1)c1ccc(O)c(O)c1` came in with an IC50 in data set [4] of 2600 µM.
Take `Oc1ccc(C(=S)Nc2ccc(O)c(O)c2)cc1`: the results for the IC50 in [1] and in data set [4] were 38 µM and 13 µM, respectively. For the same compound, the 50% effective concentration (EC50) in [2] was found to be 14 µM; in [3], 10 µM.
Compound `O=C(Nc1cc(O)cc(O)c1)c1ccc(O)c(O)c1` came in with a half-maximal inhibitory concentration (IC50) in data set [4] of 202 µM.
As to `O=C(Nc1ccc(O)c(O)c1)c1cc(O)cc(O)c1`, the EC50 came out at 23 µM in [2] and 5 µM in data set [3]. This compound gave an IC50 in [4] of 34 µM.
Regarding `O=S(=O)(Nc1ccc(O)c(O)c1)c1ccc(O)c(O)c1`, the Ratio IC50 in data set [13] came to 6. In data set [4], this compound yielded a half-inhibitory concentration (IC50) of 130 µM.
For `O=c1c(O)c(-c2ccc(O)c(O)c2)oc2cc(O)cc(O)c12` [QUERCETIN], the EC50 was 16 µM in [2] and 10 µM in data set [3].
`Nc1cccc(NC(=O)c2ccc(O)c(O)c2)c1`: the half-inhibitory concentration (IC50) in data set [4] came to 440 µM.
On the same count and under the same terms, under `Oc1ccc(C(=S)Nc2ccccc2)cc1O` stands 124 µM.
As for `Oc1ccc(NC(=S)c2ccc(O)c(O)c2)cc1O`, the IC50 in data set [1] is 55 µM; in data set [4], 9 µM. For the same compound, the values for the EC50 in [2] and in data set [3] were 9 µM and 12 µM, respectively. In addition, the Ratio IC50 in [13] was found to be 2. In addition, the viability at 5 µM in [9] is 92.8%. The Activity is 87.5 ng/mL in [14] and 100.8% in [11]. In data set [12], the remaining at 2 h, 20000 µM is 70%.
In data set [4], `O=C(c1ccc(O)c(O)c1)N(CCCCO)c1ccc(O)c(O)c1` returned a half-inhibitory concentration (IC50) of 88 µM.
Turning to `O=C(Nc1ccc(O)c(O)c1)c1ccc(O)c(O)c1`, the EC50 in [2] and in data set [3] was 12 µM in each case. In addition, in data set [4], the IC50 stood at 20 µM.
